Test results as given in US12359176B2, “Engineered cells for production of indole-derivatives” (priority 2019, dated 2025).

Legend:
Assay type in all cases: cell-based
[1] = tested on: E. coli YhjV knockout (HMP3406_YhjV KO); assay: Growth test of yhjV knockout strain in tryptophan; details: 1 mM tryptophan, M9 with 0.2% glucose, 30° C., 48 h
Experimental: This Example describes testing the influence of YhjV on the uptake of amino acids. The growth test was performed using M9 medium supplemented with 0.2% glucose and 1 mM tryptophan, as well as appropriate antibiotics (100 mg/L ampicillin or 50 mg/L kanamycin). The growth curves were monitored with Growth Profiler (Enzyscreen, Heemstede, Netherland) at 30° C. and 250 RPM for 48 h.
We first tested how YhjV transporter affects the growth of E. coli tryptophan. We followed the growth curves of E. coli wild type BW25113 (HMP0_wt), YhjV knockout (HMP3406_YhjV KO) and YhjV overexpression (HMP3405_YhjV O. E., made by transforming pHM635 into HMP0) in M9 medium containing 0.2% glucose supplemented with 1 mM tryptophan.

E. coli = assay: Growth of E. coli in the presence of melatonin
Experimental: FIG. 2. High-concentration of melatonin decreased cell growth of E. coli. Melatonin stock-solution was made by dissolving melatonin into 70% ethanol (ETOH). The growth medium was M9 supplemented with 0.2% glucose and 2 to 7 g/L melatonin. […] The ordinate scale reflects optical density.
(§1) The E. coli Keio strains (single gene deleted strains) were inoculated into 400 μl of M9+0.2% glucose media supplemented with kanamycin (50 μg/ml) in 96 deep well-plate picking the single colonies in LB-agar plates. Then, the plate was incubated at 30° C. with 300 rpm overnight (incubated for 18-24 h). The wild type strain E. coli BW25113 was used as a control. The following day, the saturated pre-cultures were diluted 100 fold into 300 μl of M9+0.2% glucose media (and antibiotics as required) supplemented with 4.4% of ethanol or 4.4% of ethanol and 4.4 g/L of melatonin so that the resulting final concentration would be 4% of ethanol and 4 g/L of melatonin in 96 well MTP plate. In case of the RBS library of yhjV, screening was performed at 5 g/L of melatonin instead of 4 g/L. Then, the culture plates were incubated in Growth Profiler (Enzyscreen, Heemstede, Netherland) at 30° C. and 250 RPM for 48 h with constant monitoring of the growth by taking picture in every 20 minutes interval. Using the GP software (GP960Viewer version 1.0.0.4, Enzyscreen, Heemstede, Netherland), the pictures data was converted into digital OD600 nm values and the growth curves were compared.
In order to elucidate whether melatonin production at high titers is toxic to E. coli, we tested the growth of E. coli strain in the presence of different concentrations of melatonin. Melatonin was externally added into M9 medium supplemented with 0.2% glucose and the growth curves were monitored. […] Compared to the control, the biomass yield decreased ˜30% at 2 g/L melatonin, and further decreased about 30% at 7 g/l melatonin.

[2] = tested on: E. coli Keio strains (single gene deleted strains); assay: Growth Profiler growth test of transporter knockout (Keio) strains in 4 g/L melatonin; details: 4% ethanol, M9+0.2% glucose, vs BW25113 control strain
Experimental: as §1
To identify any melatonin-specific native transporters in E. coli, an E. coli knockout library of 430 strains was screened, testing cell growth in the presence of 4 g/L (or 5 g/L) melatonin using the Growth Profiler. In such a screen, improved growth parameters (especially higher growth rate and/or lower lag time) compared to wild-type strain can be expected in case an importer is knocked-out, whereas decreased growth parameters can be expected in case an exporter is knocked-out (FIG. 3).
The growth curves of the five selected transporter candidate deletion strains (target candidate knocked-out Keio strains) were accessed after running growth profiler experiments as mentioned above.

Compound | growth of YhjV knockout compared to the wild type [1] | biomass yield decrease compared to the control (E. coli; 2 g/L melatonin, M9 medium with 0.2% glucose, control contains 4% ETOH) | further biomass yield decrease (E. coli; 7 g/l melatonin, M9 medium with 0.2% glucose, control contains 4% ETOH) | effect on E. coli growth (E. coli; high concentrations of melatonin (2 to 7 g/L), M9 with 0.2% glucose) | growth of acrB deletion strain [2] | growth of argO deletion strain [2] | growth of garP deletion strain [2] | growth of lysP deletion strain [2] | growth of yhjV deletion strain [2]
N[C@@H](Cc1c[nH]c2ccccc12)C(=O)O [tryptophan, L-tryptophan] | much lower biomass yield | – | – | – | – | – | – | – | –
COc1ccc2[nH]cc(CCNC(C)=O)c2c1 [melatonin] | – | about 30% | about 30% | inhibited E. coli growth | no growth at all | reduced growth rates | longer lag time and reduced growth rate | reduced growth rates | longer lag time and reduced growth rate
